pIC50: −log10 of the molar value.
Key:
Progesterone receptor = molecular target: T1, Progesterone receptor (Homo sapiens, UniProt P06401); assay: Antagonist activity at progesterone receptor expressed in human T47D cells assessed as inhibition of promegestone-induced alkaline phosphatase activity; format: functional, cell-based
T1 sequence (P06401 whole entry): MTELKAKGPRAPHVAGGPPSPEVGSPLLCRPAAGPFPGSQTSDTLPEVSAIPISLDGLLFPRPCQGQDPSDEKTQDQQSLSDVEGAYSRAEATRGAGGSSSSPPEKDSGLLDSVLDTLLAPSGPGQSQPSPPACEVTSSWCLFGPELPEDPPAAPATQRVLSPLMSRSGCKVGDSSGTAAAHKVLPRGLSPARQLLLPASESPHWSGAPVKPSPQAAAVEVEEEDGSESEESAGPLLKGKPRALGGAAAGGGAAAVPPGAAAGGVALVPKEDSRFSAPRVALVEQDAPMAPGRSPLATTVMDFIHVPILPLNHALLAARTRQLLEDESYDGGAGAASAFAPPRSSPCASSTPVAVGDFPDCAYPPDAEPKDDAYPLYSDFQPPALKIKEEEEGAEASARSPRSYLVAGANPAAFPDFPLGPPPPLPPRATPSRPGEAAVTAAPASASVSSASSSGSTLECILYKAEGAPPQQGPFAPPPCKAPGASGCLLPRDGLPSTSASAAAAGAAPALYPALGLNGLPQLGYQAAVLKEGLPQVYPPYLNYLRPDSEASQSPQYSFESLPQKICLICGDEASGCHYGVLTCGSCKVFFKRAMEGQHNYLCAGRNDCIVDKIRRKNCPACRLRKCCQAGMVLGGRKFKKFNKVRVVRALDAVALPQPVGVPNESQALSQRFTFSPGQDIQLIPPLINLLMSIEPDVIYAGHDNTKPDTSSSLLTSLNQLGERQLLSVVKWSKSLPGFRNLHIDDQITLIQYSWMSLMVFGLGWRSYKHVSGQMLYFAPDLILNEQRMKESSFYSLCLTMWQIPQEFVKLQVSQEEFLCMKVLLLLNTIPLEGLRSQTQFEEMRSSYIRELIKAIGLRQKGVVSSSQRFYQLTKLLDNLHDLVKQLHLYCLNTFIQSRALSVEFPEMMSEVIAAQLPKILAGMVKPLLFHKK

Homo sapiens = species on record: Homo sapiens; assay: Ratio of IC50 for glucocorticoid receptor to IC50 for progesterone receptor
Glucocorticoid receptor = molecular target: T2, Glucocorticoid receptor (Homo sapiens, UniProt P04150); assay: Antagonist activity at glucocorticoid receptor expressed in A549 cells assessed as inhibition of corticoid-induced gene transcription by luciferase reporter gene assay; format: functional, cell-based
T2 sequence (P04150 whole entry): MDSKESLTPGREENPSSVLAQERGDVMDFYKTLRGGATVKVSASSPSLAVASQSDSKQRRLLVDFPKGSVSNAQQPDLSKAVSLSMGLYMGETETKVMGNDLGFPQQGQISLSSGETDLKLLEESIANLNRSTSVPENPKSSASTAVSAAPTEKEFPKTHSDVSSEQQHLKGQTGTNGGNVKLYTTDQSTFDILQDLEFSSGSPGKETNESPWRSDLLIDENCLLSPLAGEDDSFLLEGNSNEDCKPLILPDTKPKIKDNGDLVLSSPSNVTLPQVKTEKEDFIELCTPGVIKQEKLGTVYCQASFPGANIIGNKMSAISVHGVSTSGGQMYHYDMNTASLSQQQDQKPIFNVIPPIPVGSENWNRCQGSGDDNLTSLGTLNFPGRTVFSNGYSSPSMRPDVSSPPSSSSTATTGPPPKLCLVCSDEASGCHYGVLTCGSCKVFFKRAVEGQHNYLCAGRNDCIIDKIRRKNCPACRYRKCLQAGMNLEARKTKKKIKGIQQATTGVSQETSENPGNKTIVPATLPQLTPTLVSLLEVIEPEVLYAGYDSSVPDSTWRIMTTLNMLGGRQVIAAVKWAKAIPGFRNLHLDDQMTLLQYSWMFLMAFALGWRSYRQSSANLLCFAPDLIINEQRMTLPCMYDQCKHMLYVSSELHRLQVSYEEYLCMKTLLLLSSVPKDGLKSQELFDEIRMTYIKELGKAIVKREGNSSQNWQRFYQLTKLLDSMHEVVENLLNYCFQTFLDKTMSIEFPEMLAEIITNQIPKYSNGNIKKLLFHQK

## C=C1OC(C)=N[C@]12CC[C@H]1[C@@H]3CCC4=CC(=O)CCC4=C3[C@@H](c3ccc(OC)c(F)c3)C[C@@]12C
Progesterone receptor
  pIC50: 8.34
Homo sapiens
  Ratio IC50: 140
Glucocorticoid receptor
  pIC50: 6.18

## C=C1OC=N[C@]12CC[C@H]1[C@@H]3CCC4=CC(=O)CCC4=C3[C@@H](c3ccc(N(C)C)cc3)C[C@@]12C
Progesterone receptor
  pIC50: 7.74
Homo sapiens
  Ratio IC50: 30
Glucocorticoid receptor
  pIC50: 6.27

## C=C1OC(C)=N[C@]12CC[C@H]1[C@@H]3CCC4=CC(=O)CCC4=C3[C@@H](c3ccc(C(C)=O)cc3)C[C@@]12C
Progesterone receptor
  pIC50: 9.23
Homo sapiens
  Ratio IC50: 780
Glucocorticoid receptor
  pIC50: 6.34

## C=C1OC(C)=N[C@]12CC[C@H]1[C@@H]3CCC4=CC(=O)CCC4=C3[C@@H](c3ccc(N(C)C)cc3)C[C@@]12C
Progesterone receptor
  pIC50: 9.20
Homo sapiens
  Ratio IC50: 130
Glucocorticoid receptor
  pIC50: 7.09

## C=C1OC=N[C@]12CC[C@H]1[C@@H]3CCC4=CC(=O)CCC4=C3[C@@H](c3ccc(C(C)=O)cc3)C[C@@]12C
Progesterone receptor
  pIC50: 7.09
Homo sapiens
  Ratio IC50: 171
Glucocorticoid receptor
  pIC50: 4.85

## C=C1OC(CC)=N[C@]12CC[C@H]1[C@@H]3CCC4=CC(=O)CCC4=C3[C@@H](c3ccc(C(C)=O)cc3)C[C@@]12C
Progesterone receptor
  pIC50: 9.47
Homo sapiens
  Ratio IC50: 620
Glucocorticoid receptor
  pIC50: 6.68

## C=C1OC(CC)=N[C@]12CC[C@H]1[C@@H]3CCC4=CC(=O)CCC4=C3[C@@H](c3ccc(OC)c(F)c3)C[C@@]12C
Progesterone receptor
  pIC50: 9.00
Homo sapiens
  Ratio IC50: > 10000
Glucocorticoid receptor
  pIC50: < 5.00

## C=C1OC(CC)=N[C@]12CC[C@H]1[C@@H]3CCC4=CC(=O)CCC4=C3[C@@H](c3ccc(N(C)C)cc3)C[C@@]12C
Progesterone receptor
  pIC50: 9.01
Homo sapiens
  Ratio IC50: 24
Glucocorticoid receptor
  pIC50: 7.64
